From patent publication US20100113465A1, “7-AZASPIRO[3.5]NONANE-7-CARBOXAMIDE COMPOUNDS” (Pfizer Inc., priority 2008, published 2010)

How the values were obtained:
human FAAH = biological target: T1, human FAAH (Homo sapiens, UniProt O00519); assay: FAAH assay, human FAAH enzyme inhibition (kinact/Ki); format: biochemical; details: oleamide substrate 50 μM, 30° C.; for kinact/KI: read-out: hFAAH kinact/Ki
T1 construct: made in house; host or cells: E. coli
T1 sequence (O00519 1-579): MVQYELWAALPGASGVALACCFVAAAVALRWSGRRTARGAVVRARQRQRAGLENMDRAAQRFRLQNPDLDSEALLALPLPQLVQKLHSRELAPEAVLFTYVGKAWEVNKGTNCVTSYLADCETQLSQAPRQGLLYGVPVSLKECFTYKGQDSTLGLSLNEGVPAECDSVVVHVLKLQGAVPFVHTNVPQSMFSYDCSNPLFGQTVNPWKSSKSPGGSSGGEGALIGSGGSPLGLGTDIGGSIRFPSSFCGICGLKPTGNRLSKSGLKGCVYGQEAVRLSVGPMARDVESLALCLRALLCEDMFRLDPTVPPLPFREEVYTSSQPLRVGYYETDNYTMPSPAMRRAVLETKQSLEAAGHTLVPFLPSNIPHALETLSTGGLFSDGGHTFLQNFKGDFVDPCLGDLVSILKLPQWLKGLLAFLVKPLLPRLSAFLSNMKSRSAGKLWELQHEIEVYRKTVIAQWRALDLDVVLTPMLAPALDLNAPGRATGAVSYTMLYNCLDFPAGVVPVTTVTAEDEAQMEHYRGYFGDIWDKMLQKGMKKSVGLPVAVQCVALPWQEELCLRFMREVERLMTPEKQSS
Description: (§1) The FAAH assay was carried out in 384-well clear polystyrene plates (Evergreen Scientific) in a total volume of 50 μl per well in a manner similar to that described by Mileni et al., Proc. Nat. Acad. Sci. 2008, 105, 12820-12824. All percents are by volume. Serial dilutions of compound were initially prepared in 100% DMSO, and then diluted two-fold into HPLC-grade H2O to give 50% DMSO. To each well, was placed the reaction mixture (40 μl) containing 1-4 nM FAAH, 50 mM NaPi, pH 7.4, 3 mM α-ketoglutarate, 0.15 mM NADH, 7.5 U/ml glutamate dehydrogenase, 2 mM ADP, 1 mM EDTA, and 0.1% Triton X-100 (The concentration shown for each component is the final concentration in the assay). To this mixture, was added 5 μl of a compound of Examples 1 to 56 at various concentrations in 50% DMSO (or 5 μl 50% DMSO for controls). This was immediately followed by the addition of 5 μl oleamide (500 μM) dissolved in 75% EtOH/25% DMSO and the reaction mixture was mixed for 1.5 min. The final concentrations of DMSO and EtOH in the assay were each 7.5%. The reactions were incubated at 30° C. and the absorbance at 340 nm was collected over a period of 90 min with readings taken in 30-second intervals using SpectraMax Plus^384 Microplate Spectrophotometer (Molecular Devices, Sunnyvale, Calif.). The human FAAH and rat FAAH used in the assay was prepared as described in the patent application WO 2006/067613 using wild-type E. coli cells transformed in St. Louis, Mo., U.S.A. The purity of the enzyme was greater than 98% based on an analysis by SDS-polyacrylamide gel electrophoresis followed by Coomassie Blue staining.
(§2) Reaction progress curves were corrected for the non-enzymatic oxidation of NADH by subtraction of absorbancies at each time point obtained from control reactions containing no FAAH enzyme. The loss of enzyme activity as a function of time is well-described by the following mathematical equation (1) for a mono-exponential decay: […]
(§3) where At represents the absorbance at time t, A0 represents the absorbance at time zero, and C represents a constant. Observed rates of enzyme inactivation (kobs) were determined from the non-linear reaction progress curves by fitting the corrected absorbancies to an equation for a mono-exponential decay using the third-party Microsoft Excel plug-in, XLfit (IDBS Limited). Secondary plots of kobs vs. inhibitor concentration were prepared from kobs values obtained from progress curves. Second-order rates for enzyme inactivation, expressed as kinact/Ki (M^−1s^−1), were calculated from the slopes from linear regression analysis of the secondary plot of kobs vs. inhibitor concentration as defined in following equation (2), where [I]<<Ki:
(§4) The concentration of substrate in the assay was equal to the Km for oleamide of 50 μM. Therefore, reported kinact/Ki values are obtained by multiplying resulting slopes by a factor of two (i.e. slope=kinact/(Ki*2)).

rat FAAH = biological target: T2, rat FAAH (Rattus norvegicus, UniProt P97612); assay: FAAH assay, rat FAAH enzyme inhibition (kinact/Ki); format: biochemical; details: oleamide substrate 50 μM, 30° C.; for kinact/KI: read-out: rFAAH kinact/Ki
T2 construct: made in house; host or cells: E. coli
T2 sequence (P97612 1-579): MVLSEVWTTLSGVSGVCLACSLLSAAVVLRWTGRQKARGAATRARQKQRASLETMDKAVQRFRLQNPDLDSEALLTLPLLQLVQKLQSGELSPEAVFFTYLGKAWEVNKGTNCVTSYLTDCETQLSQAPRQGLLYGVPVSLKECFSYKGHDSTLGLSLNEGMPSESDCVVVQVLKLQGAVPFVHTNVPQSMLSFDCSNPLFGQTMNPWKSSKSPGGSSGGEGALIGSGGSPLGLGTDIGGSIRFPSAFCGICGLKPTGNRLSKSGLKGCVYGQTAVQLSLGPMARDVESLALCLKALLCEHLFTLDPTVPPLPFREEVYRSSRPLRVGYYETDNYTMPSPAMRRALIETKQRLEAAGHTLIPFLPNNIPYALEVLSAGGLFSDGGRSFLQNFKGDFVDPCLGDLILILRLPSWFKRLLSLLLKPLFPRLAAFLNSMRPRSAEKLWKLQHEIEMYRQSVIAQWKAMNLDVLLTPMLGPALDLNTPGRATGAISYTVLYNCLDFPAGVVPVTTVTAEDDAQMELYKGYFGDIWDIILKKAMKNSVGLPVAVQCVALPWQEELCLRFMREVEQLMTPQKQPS
Description: as §1, §2, §3, §4

| kinact/KI (human FAAH) | kinact/KI (rat FAAH) | hFAAH kinact/Ki (human FAAH) | rFAAH kinact/Ki (rat FAAH) | SMILES |
| --- | --- | --- | --- | --- |
| 3720 M⁻¹ s⁻¹ | 756 M⁻¹ s⁻¹ |  |  | Cc1noc(NC(=O)N2CCC3(CC2)CC(c2nc(-c4ccc(OC(F)(F)F)cc4)cs2)C3)c1C [Example 38, N-(3,4-dimethylisoxazol-5-yl)-2-{4-[4-(trifluoromethoxy)phenyl]-1,3-thiazol-2-yl}-7-azaspiro[3.5]nonane-7-carboxamide] |
|  |  | 1100 M⁻¹ s⁻¹ | 860 M⁻¹ s⁻¹ | Cc1noc(NC(=O)N2CCC3(CC(c4ccc(F)c(Cl)c4)C3)C(C)C2)c1C (single isomer, unassigned) [Example 42d, 2-(3-chloro-4-fluorophenyl)-N-(3,4-dimethylisoxazol-5-yl)-5-methyl-7-azaspiro[3.5]nonane-7-carboxamide] |
| 10200 M⁻¹ s⁻¹ | 2040 M⁻¹ s⁻¹ |  |  | Cn1nnnc1NC(=O)N1CCC2(CC1)CC(c1cccc3c1OC(F)(F)O3)C2 [Example 55, 2-(2,2-difluoro-1,3-benzodioxol-4-yl)-N-(1-methyl-1H-tetrazol-5-yl)-7-azaspiro[3.5]nonane-7-carboxamide] |
| 9660 M⁻¹ s⁻¹ | 3200 M⁻¹ s⁻¹ |  |  | Cc1cccc(C2CC3(CCN(C(=O)Nc4nnnn4C)CC3)C2)c1 [Example 16, 2-(3-methylphenyl)-N-(1-methyl-1H-tetrazol-5-yl)-7-azaspiro[3.5]nonane-7-carboxamide] |
| 2670 M⁻¹ s⁻¹ | 4120 M⁻¹ s⁻¹ |  |  | Cc1noc(NC(=O)N2CCC3(CC2)CC(c2ccc(Cl)c(F)c2)C3)c1C [Example 39, 2-(4-chloro-3-fluorophenyl)-N-(3,4-dimethylisoxazol-5-yl)-7-azaspiro[3.5]nonane-7-carboxamide] |
| 494 M⁻¹ s⁻¹ | 247 M⁻¹ s⁻¹ |  |  | COC1(c2ccc(F)c(Cl)c2)CC2(CCN(C(=O)Nc3onc(C)c3C)CC2)C1 [Example 43, 2-(3-chloro-4-fluorophenyl)-N-(3,4-dimethylisoxazol-5-yl)-2-methoxy-7-azaspiro[3.5]nonane-7-carboxamide] |
| 1900 M⁻¹ s⁻¹ | 1980 M⁻¹ s⁻¹ |  |  | Cc1noc(NC(=O)N2CCC3(CC2)CC(c2csc(-c4cccc(F)c4)n2)C3)c1C [Example 37, N-(3,4-dimethylisoxazol-5-yl)-2-[2-(3-fluorophenyl)-1,3-thiazol-4-yl]-7-azaspiro[3.5]nonane-7-carboxamide] |
| 3050 M⁻¹ s⁻¹ | 1540 M⁻¹ s⁻¹ |  |  | Cc1noc(NC(=O)N2CCC3(CC2)CC(c2ccc(OCc4ccc(F)cc4)cc2)C3)c1C [Example 40, N-(3,4-dimethylisoxazol-5-yl)-2-{4-[(4-fluorobenzyl)oxy]phenyl}-7-azaspiro[3.5]nonane-7-carboxamide] |
| 2520 M⁻¹ s⁻¹ | 5460 M⁻¹ s⁻¹ |  |  | O=C(Nc1nnc(-c2cccc(Cl)c2)o1)N1CCC2(CC1)CC(c1cccc(OC(F)(F)F)c1)C2 [Example 51, N-[5-(3-chlorophenyl)-1,3,4-oxadiazol-2-yl]-2-[3-(trifluoromethoxy)phenyl]-7-azaspiro[3.5]nonane-7-carboxamide] |
|  |  | 1550 M⁻¹ s⁻¹ | 3040 M⁻¹ s⁻¹ | Cc1noc(NC(=O)N2CCC3(CC(c4ccc(F)c(Cl)c4)C3)C(C)C2)c1C (single isomer, unassigned) [Example 42a, 2-(3-chloro-4-fluorophenyl)-N-(3,4-dimethylisoxazol-5-yl)-5-methyl-7-azaspiro[3.5]nonane-7-carboxamide] |
|  |  | 37.1 M⁻¹ s⁻¹ | 49.4 M⁻¹ s⁻¹ | Cc1noc(NC(=O)N2CCC3(CC(c4ccc(F)c(Cl)c4)C3)C(C)C2)c1C (single isomer, unassigned) [Example 42b, 2-(3-chloro-4-fluorophenyl)-N-(3,4-dimethylisoxazol-5-yl)-5-methyl-7-azaspiro[3.5]nonane-7-carboxamide] |
| 2340 M⁻¹ s⁻¹ | 9990 M⁻¹ s⁻¹ |  |  | Cc1noc(NC(=O)N2CCC3(CC2)CC(c2cccc(Oc4ccc(Br)cn4)c2)C3)c1C [Example 11, 2-{3-[(5-bromopyridin-2-yl)oxy]phenyl}-N-(3,4-dimethylisoxazol-5-yl)-7-azaspiro[3.5]nonane-7-carboxamide] |
| 1530 M⁻¹ s⁻¹ | 2460 M⁻¹ s⁻¹ |  |  | Cc1nnc(NC(=O)N2CCC3(CC2)CC(c2cccc(OC(F)(F)F)c2)C3)o1 [Example 35, N-(5-methyl-1,3,4-oxadiazol-2-yl)-2-[3-(trifluoromethoxy)phenyl]-7-azaspiro[3.5]nonane-7-carboxamide] |
|  |  | 2760 M⁻¹ s⁻¹ | 3530 M⁻¹ s⁻¹ | Cc1noc(NC(=O)N2CCC3(CC(c4ccc(F)c(Cl)c4)C3)C(C)C2)c1C (single isomer, unassigned) [Example 42c, 2-(3-chloro-4-fluorophenyl)-N-(3,4-dimethylisoxazol-5-yl)-5-methyl-7-azaspiro[3.5]nonane-7-carboxamide] |
| 2460 M⁻¹ s⁻¹ | 3940 M⁻¹ s⁻¹ |  |  | Cc1cccc(C2CC3(CCN(C(=O)Nc4nnc(-c5ccccc5)nn4)CC3)C2)c1 [Example 17, 2-(3-methylphenyl)-N-(6-phenyl-1,2,4,5-tetrazin-3-yl)-7-azaspiro[3.5]nonane-7-carboxamide] |
| 10300 M⁻¹ s⁻¹ | 1940 M⁻¹ s⁻¹ |  |  | Cn1nnnc1NC(=O)N1CCC2(CC1)CC(c1cccc(F)c1F)C2 [Example 56, 2-(2,3-difluorophenyl)-N-(1-methyl-1H-tetrazol-5-yl)-7-azaspiro[3.5]nonane-7-carboxamide] |
| 1100 M⁻¹ s⁻¹ | 656 M⁻¹ s⁻¹ |  |  | Cc1noc(NC(=O)N2CCC3(CC2)CC(c2cccc(-c4cccc(F)c4)c2)C3)c1C [Example 31, N-(3,4-dimethylisoxazol-5-yl)-2-(3′-fluorobiphenyl-3-yl)-7-azaspiro[3.5]nonane-7-carboxamide] |
| 354 M⁻¹ s⁻¹ | 405 M⁻¹ s⁻¹ |  |  | Cc1noc(NC(=O)N2CCC3(CC2)CC(c2ccc(F)c(Cl)c2)C3C)c1C (centres unmarked) [Example 41, 2-(3-chloro-4-fluorophenyl)-N-(3,4-dimethylisoxazol-5-yl)-1-methyl-7-azaspiro[3.5]nonane-7-carboxamide] |
| 991 M⁻¹ s⁻¹ | 1360 M⁻¹ s⁻¹ |  |  | Cc1noc(NC(=O)N2CCC3(CC(c4ccc(F)c(Cl)c4)C3)C(C)C2)c1C (centres unmarked) [Example 42, 2-(3-chloro-4-fluorophenyl)-N-(3,4-dimethylisoxazol-5-yl)-5-methyl-7-azaspiro[3.5]nonane-7-carboxamide] |
